Measured values from patent US10213447B2, “Preparation of acetate salt compositions of pharmaceutical agents” (The Curators of the University of Missouri, priority 2015, dated 2019).
Values after ≈ are worked out from the molar mass of the structure shown.

Tests used:
[1] = cited from earlier work
physchem = details: pH 7, aqueous buffer, thermodynamic from solid
Description: Sodium hydroxide was added raising the pH of the solution to 12.30. […] After the period of about 24 hours elapsed, the solution was freeze dried. The amount of DXT that dissolved into solution from each DXT composition was measured by determining the amount of DXT in the supernatant, as measured by UV spectroscopy at 230 nm after removing undissolved material by centrifugation. […] Native DXT (uncoated) dissolved into acetate buffer at the same pH was used as a control.

[2] = Particle size, zeta potential and polydispersity index by dynamic light scattering; assay type: physicochemical
Description: Fresh NPs were re-suspended by sonication (Qsonica LLC, Newtown, Conn., USA) in deionized water, or SA coated NPs were dissolved in deionized water and the particle size, the zeta potential, and polydispersity index (PDI) was measured through dynamic light scattering (Zetasizer Nano ZS, Malvern Instruments Ltd, Worcestershire, UK) at 25° C. Samples with polydispersity index (PDI)<0.05 were considered monodispersed according to the National Institute guidelines (7).

[3] = cited from earlier work; remark: listed apart in the source
[4] = Meng, et al.; cited from earlier work
[5] = in vivo; cited from earlier work
[6] = cited from earlier work; remark: listed apart in the source

**Q.** Which results are given for CC(=O)O[C@@]12CO[C@@H]1C[C@H](O)[C@@]1(C)C(=O)[C@H](O)C3=C(C)[C@@H](OC(=O)[C@H](O)[C@@H](NC(=O)OC(C)(C)C)c4ccccc4)C[C@@](O)([C@@H](OC(=O)c4ccccc4)[C@H]21)C3(C)C [uncoated DXT, Docetaxel, reference compound]?
**A.** pKa [1]: ~10.96; solubility (physchem): ~11.8 µg/mL (≈ 14.6 µM)

**Q.** With O=P(O)(O)OP(=O)(O)OP(=O)(O)O [Triphosphoric acid] as the compound, how does the “pKa (fifth listed)” value ([1]; fifth dissociation, printed pKa) read?
**A.** 8.5

**Q.** What about the pKa1 ([1]; first dissociation) of the same compound?
**A.** 1

**Q.** What about the pKa4 ([1]; fourth dissociation) of the same compound?
**A.** 3.7

**Q.** What about the “pKa (second listed)” value ([1]; second dissociation, printed pKa) of the same compound?
**A.** 2.2

**Q.** What about the pKa3 ([1]; third dissociation) of the same compound?
**A.** 2.3

**Q.** With CC(=O)[O-].[Na+] [pure salt, sodium acetate] as the compound, how does the ZP ([2]; as worded) read?
**A.** 0-3 mV

**Q.** What about the “Zeta potential of pure salt (ev)” value ([2]; pure salt) of the same compound?
**A.** −4.87 ± 0.64 ev

**Q.** What does the source list for C[C@H](Cn1cnc2c(N)ncnc21)OCP(=O)(O)O [TFV, tenofovir]?
**A.** Solubility in water [3]: 13400 µg/mL (≈ 46700 µM); TFV encapsulated in chitosan NPs (EE %) [4]: 5.83%; Oral bioavailability [5]: 25-39%; log P [6]: −1.1
